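The concentration for 50% growth inhibition is given as GI50. TGI: total growth inhibition.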
How the values were obtained:
Experiment in all cases: NCI-60 cell line screen, 384-well format
786-0 renal = test system: 786-0 renal
A498 renal = test system: A498 renal
A549 NSCLC = test system: A549 NSCLC
ACHN renal = test system: ACHN renal
BT-549 breast = test system: BT-549 breast
CAKI-1 renal = test system: CAKI-1 renal
CCRF-CEM leukemia = test system: CCRF-CEM leukemia
DU-145 prostate = test system: DU-145 prostate
EKVX NSCLC = test system: EKVX NSCLC
HCC-2998 colon = test system: HCC-2998 colon
HCT-116 colon = test system: HCT-116 colon
HCT-15 colon = test system: HCT-15 colon
HL-60(TB) leukemia = test system: HL-60(TB) leukemia
HOP-62 NSCLC = test system: HOP-62 NSCLC
HOP-92 NSCLC = test system: HOP-92 NSCLC
HS 578T breast = test system: HS 578T breast
HT29 colon = test system: HT29 colon
IGROV1 ovarian = test system: IGROV1 ovarian
K-562 leukemia = test system: K-562 leukemia
KM12 colon = test system: KM12 colon
LOX IMVI melanoma = test system: LOX IMVI melanoma
M14 melanoma = test system: M14 melanoma
MALME-3M melanoma = test system: MALME-3M melanoma
MCF7 breast = test system: MCF7 breast
MDA-MB-231 breast = test system: MDA-MB-231 breast
MDA-MB-435 melanoma = test system: MDA-MB-435 melanoma
MDA-MB-468 breast = test system: MDA-MB-468 breast
MOLT-4 leukemia = test system: MOLT-4 leukemia
NCI-H226 lung = test system: NCI-H226 lung
NCI-H23 lung = test system: NCI-H23 lung
NCI-H322M lung = test system: NCI-H322M lung
NCI-H460 NSCLC = test system: NCI-H460 NSCLC
NCI-H522 lung = test system: NCI-H522 lung
NCI/ADR-RES ovarian = test system: NCI/ADR-RES ovarian
OVCAR-3 ovarian = test system: OVCAR-3 ovarian
OVCAR-4 ovarian = test system: OVCAR-4 ovarian
OVCAR-5 ovarian = test system: OVCAR-5 ovarian
OVCAR-8 ovarian = test system: OVCAR-8 ovarian
PC-3 prostate = test system: PC-3 prostate
RPMI-8226 leukemia = test system: RPMI-8226 leukemia
RXF 393 renal = test system: RXF 393 renal
SF-268 CNS = test system: SF-268 CNS
SF-295 CNS = test system: SF-295 CNS
SF-539 CNS = test system: SF-539 CNS
SK-MEL-2 melanoma = test system: SK-MEL-2 melanoma
SK-MEL-28 melanoma = test system: SK-MEL-28 melanoma
SK-MEL-5 melanoma = test system: SK-MEL-5 melanoma
SK-OV-3 ovarian = test system: SK-OV-3 ovarian
SN12C renal = test system: SN12C renal
SNB-19 CNS = test system: SNB-19 CNS
SNB-75 CNS = test system: SNB-75 CNS
SR leukemia = test system: SR leukemia
SW-620 colon = test system: SW-620 colon
T-47D breast = test system: T-47D breast
TK-10 renal = test system: TK-10 renal
U251 glioblastoma = test system: U251 glioblastoma
UACC-257 melanoma = test system: UACC-257 melanoma
UACC-62 melanoma = test system: UACC-62 melanoma
UO-31 renal = test system: UO-31 renal

## Nc1nc(Cl)nc2c1ncn2C1OC(CO)C(O)C1F (stereo unspecified)
786-0 renal
  GI50: 0.0975 µM
A498 renal
  GI50: 0.324 µM
  TGI: > 23.1 µM
A549 NSCLC
  GI50: 0.176 µM
  TGI: > 100 µM
ACHN renal
  GI50: 0.122 µM
  TGI: 0.427 µM
BT-549 breast
  GI50: 0.0774 µM
  TGI: 0.483 µM
CAKI-1 renal
  GI50: 0.0915 µM
CCRF-CEM leukemia
  GI50: 0.0157 µM
  TGI: 0.0297 µM
DU-145 prostate
  GI50: 0.277 µM
EKVX NSCLC
  GI50: 0.914 µM
HCC-2998 colon
  GI50: 0.0346 µM
  TGI: > 100 µM
HCT-116 colon
  GI50: 0.0576 µM
  TGI: > 100 µM
HCT-15 colon
  GI50: 0.202 µM
  TGI: > 100 µM
HL-60(TB) leukemia
  GI50: 0.0205 µM
  TGI: 0.0368 µM
HOP-62 NSCLC
  GI50: 0.0419 µM
  TGI: 0.15 µM
HOP-92 NSCLC
  GI50: 0.301 µM
  TGI: > 100 µM
HS 578T breast
  GI50: 0.43 µM
  TGI: > 22.8 µM
HT29 colon
  GI50: 0.51 µM
  TGI: > 100 µM
IGROV1 ovarian
  GI50: 0.419 µM
  TGI: > 100 µM
K-562 leukemia
  GI50: 0.0804 µM
  TGI: > 100 µM
KM12 colon
  GI50: 0.323 µM
  TGI: > 100 µM
LOX IMVI melanoma
  GI50: 0.306 µM
  TGI: 0.88 µM
M14 melanoma
  GI50: 0.0748 µM
  TGI: 0.29 µM
MALME-3M melanoma
  GI50: 0.375 µM
  TGI: > 100 µM
MCF7 breast
  GI50: 0.2 µM
  TGI: > 100 µM
MDA-MB-231 breast
  GI50: 0.346 µM
  TGI: > 100 µM
MDA-MB-435 melanoma
  GI50: 0.261 µM
  TGI: > 100 µM
MDA-MB-468 breast
  GI50: 0.253 µM
  TGI: 0.699 µM
MOLT-4 leukemia
  GI50: 0.0148 µM
  TGI: 0.0283 µM
NCI-H226 lung
  GI50: 0.775 µM
  TGI: 3.58 µM
NCI-H23 lung
  GI50: 0.0377 µM
  TGI: 0.114 µM
NCI-H322M lung
  GI50: 1.85 µM
  TGI: > 100 µM
NCI-H460 NSCLC
  GI50: 0.177 µM
  TGI: 0.376 µM
NCI-H522 lung
  GI50: 0.165 µM
  TGI: > 28.9 µM
NCI/ADR-RES ovarian
  GI50: 0.0357 µM
  TGI: 1.24 µM
OVCAR-3 ovarian
  GI50: 0.55 µM
  TGI: > 100 µM
OVCAR-4 ovarian
  GI50: > 100 µM
  TGI: > 100 µM
OVCAR-5 ovarian
  GI50: 0.515 µM
  TGI: > 100 µM
OVCAR-8 ovarian
  GI50: 0.0315 µM
  TGI: > 100 µM
PC-3 prostate
  GI50: > 20.9 µM
  TGI: > 100 µM
RPMI-8226 leukemia
  GI50: 1.73 µM
  TGI: 3.78 µM
RXF 393 renal
  GI50: 7.36 µM
  TGI: > 100 µM
SF-268 CNS
  GI50: 0.17 µM
  TGI: 0.692 µM
SF-295 CNS
  GI50: 0.724 µM
  TGI: 1.61 µM
SF-539 CNS
  GI50: 0.612 µM
  TGI: 1.82 µM
SK-MEL-2 melanoma
  GI50: 0.304 µM
  TGI: 0.697 µM
SK-MEL-28 melanoma
  GI50: 0.106 µM
  TGI: > 100 µM
SK-MEL-5 melanoma
  GI50: 0.0616 µM
  TGI: 0.16 µM
SK-OV-3 ovarian
  GI50: 0.315 µM
  TGI: > 100 µM
SN12C renal
  GI50: 0.0561 µM
  TGI: 0.401 µM
SNB-19 CNS
  GI50: 0.0726 µM
SNB-75 CNS
  GI50: 1.26 µM
  TGI: 7.99 µM
SR leukemia
  GI50: 0.212 µM
  TGI: 0.38 µM
SW-620 colon
  GI50: 0.401 µM
  TGI: > 100 µM
T-47D breast
  GI50: 2.85 µM
  TGI: > 100 µM
TK-10 renal
  GI50: 0.532 µM
  TGI: > 100 µM
U251 glioblastoma
  GI50: 0.259 µM
  TGI: 2.7 µM
UACC-257 melanoma
  GI50: 0.412 µM
UACC-62 melanoma
  GI50: 0.208 µM
  TGI: 0.476 µM
UO-31 renal
  GI50: 0.234 µM

## Cc1c(Nc2nccc3cc(CN4CC[C@@H](O)C4)cnc23)cccc1-c1cccc(-c2nc3cc(CN4CC[C@@H](C(=O)O)C4)cc(C#N)c3o2)c1C
786-0 renal
  GI50: 0.334 µM
  TGI: 1.26 µM
A498 renal
  GI50: 0.391 µM
  TGI: 1.49 µM
A549 NSCLC
  GI50: 0.441 µM
  TGI: 2.97 µM
BT-549 breast
  GI50: 0.14 µM
  TGI: 0.532 µM
CAKI-1 renal
  GI50: 0.464 µM
  TGI: > 100 µM
CCRF-CEM leukemia
  GI50: 0.147 µM
  TGI: 0.287 µM
HCC-2998 colon
  GI50: 0.318 µM
  TGI: 1.25 µM
HCT-15 colon
  GI50: 1.53 µM
  TGI: 3.01 µM
HL-60(TB) leukemia
  GI50: 0.172 µM
  TGI: 0.314 µM
HOP-92 NSCLC
  GI50: 0.297 µM
  TGI: 1.97 µM
HT29 colon
  GI50: 0.213 µM
  TGI: 0.496 µM
IGROV1 ovarian
  GI50: 1.07 µM
  TGI: > 100 µM
K-562 leukemia
  GI50: 0.205 µM
  TGI: 0.567 µM
KM12 colon
  GI50: 0.0697 µM
  TGI: 0.679 µM
LOX IMVI melanoma
  GI50: 0.668 µM
  TGI: 1.86 µM
M14 melanoma
  GI50: 0.259 µM
  TGI: 0.866 µM
MALME-3M melanoma
  GI50: 0.127 µM
  TGI: 0.851 µM
MCF7 breast
  GI50: 0.223 µM
  TGI: 1.43 µM
MDA-MB-435 melanoma
  GI50: 0.0473 µM
  TGI: 0.206 µM
MDA-MB-468 breast
  GI50: 0.117 µM
  TGI: 0.31 µM
MOLT-4 leukemia
  GI50: 0.171 µM
  TGI: 0.315 µM
NCI-H226 lung
  GI50: 0.449 µM
  TGI: 3.73 µM
NCI-H322M lung
  GI50: 0.416 µM
  TGI: > 100 µM
NCI-H460 NSCLC
  GI50: 0.193 µM
  TGI: 0.435 µM
NCI-H522 lung
  GI50: 0.118 µM
  TGI: 0.287 µM
OVCAR-4 ovarian
  GI50: 0.459 µM
  TGI: 4.98 µM
OVCAR-5 ovarian
  GI50: 0.522 µM
  TGI: > 100 µM
OVCAR-8 ovarian
  GI50: 0.514 µM
  TGI: 1.83 µM
PC-3 prostate
  GI50: 0.403 µM
  TGI: 1.75 µM
RPMI-8226 leukemia
  GI50: 0.152 µM
  TGI: 0.29 µM
RXF 393 renal
  GI50: 0.137 µM
  TGI: 0.39 µM
SF-268 CNS
  GI50: 0.371 µM
  TGI: 3.96 µM
SF-295 CNS
  GI50: 0.416 µM
  TGI: 1.45 µM
SF-539 CNS
  GI50: 0.274 µM
  TGI: 0.971 µM
SK-MEL-2 melanoma
  GI50: 0.0262 µM
  TGI: 0.142 µM
SK-MEL-28 melanoma
  GI50: 0.261 µM
  TGI: 1.62 µM
SK-MEL-5 melanoma
  GI50: 0.0948 µM
  TGI: 0.321 µM
SK-OV-3 ovarian
  GI50: 0.246 µM
  TGI: 1.18 µM
SR leukemia
  GI50: 0.0289 µM
  TGI: 0.107 µM
T-47D breast
  GI50: 0.325 µM
  TGI: > 100 µM
TK-10 renal
  GI50: 1.66 µM
  TGI: > 100 µM
U251 glioblastoma
  GI50: 0.335 µM
  TGI: 1.15 µM
UACC-257 melanoma
  GI50: 0.229 µM
  TGI: 1.04 µM
UACC-62 melanoma
  GI50: 0.304 µM
  TGI: 1.85 µM
UO-31 renal
  GI50: 3.25 µM
  TGI: > 100 µM

From PubChem BioAssay (NCI)
